Results: paper PMC6493465 (Oncotarget, 2019)
Where two headings read alike, the source gives them in different places. Blank lines part the entries; values can stand above or below the compound they belong to.

What was measured:
[1] = test system: MCL-1, BCL2L10, survivin and cPARP in MV4-11 cells; assay: Western blot analysis of anti-apoptotic protein expression, MV4-11; format: cell-based, human; conditions: MV4-11, 24-hour treatment; gilteritinib 10 nM, AraC 1000 nM, DNR 6 nM, IDR 1 nM and 2 nM, Aza 1000 nM
Experimental: (§1) Cell lysates were prepared in radioimmunoprecipitation assay buffer (Thermo Fisher Scientific Inc., Rockford, IL) supplemented with phosphatase (Thermo Fisher Scientific Inc.) and protease inhibitors (Merck, Billerica, MA), electrophoresed on 4%–15% gels, and subsequently transferred to polyvinylidene difluoride membranes. The membranes were blocked using Blocking One (Nacalai Tesque Inc., Kyoto, Japan) for 1 hour and then incubated overnight with primary antibodies to MCL-1, BCL210, cPARP (all from Cell Signaling Technology, Danvers, MA, USA), survivin (R&D Systems, Inc., Minneapolis, MN), and α-actin (MilliporeSigma, Burlington, MA). The membranes were washed with TBS Tween-20 (TBS-T) buffer and incubated with appropriate horseradish peroxidase-linked secondary antibodies (Cell Signaling Technology Japan K.K.) for 1 hour at room temperature. After washing the membranes in TBS-T buffer, enhanced chemiluminescence Western Blotting Detection Reagent ECL-prime (GE Healthcare, Fairfield, CT) was applied. Signals were detected with a charge-coupled device camera (ImageQuant LAS4000; GE Healthcare); signal intensity was quantified using ImageQuant™ TL software (GE Healthcare).

[2] = Pharmacokinetic assays (plasma and tumor) in nude mice xenografted with MV4-11 cells; format: in vivo, mouse; conditions: for AUC24 ratio: combination versus the other group; for Cmax / Tmax / AUC: nude, mouse; for AUC: read-out: AUC24
Experimental: Plasma samples were prepared by centrifugation (n=3 per group; one sample in the combination group was excluded due to improper handling). […] These assays were conducted by Astellas Research Technologies Co., Ltd. under the guidance of Analysis & Pharmacokinetics Research Laboratories, Astellas Pharma, Inc., or by Nemoto Science Co., Ltd. (Ibaraki, Japan). […] Body weight and tumor assessments obtained on with MV4-11 cells received one of the following Day −1 were designated as Day 0 (baseline) measurements. combination treatments: 1. […] The percent tumor regression was calculated using the formula: […]

[3] = test system: MV4-11 cells; assay: Antitumor effects in mice xenografted with MV4-11 cells; format: in vivo, mouse; conditions: MV4-11 xenograft; for Regression of Tumor / Inhibition of Tumor Growth: Day 21
Experimental: Four or five-week-old male nude mice (CanN.Cg-Foxn1nu/Crl/Crlj[nu/nu]; Charles River Laboratories Japan, Inc., Kanagawa, Japan) were maintained under specific pathogen-free conditions and received a standard diet and water supply throughout the study. All animal experimental procedures were performed in accordance with the Animal Ethics Committee of Astellas Pharma, Inc. For in vivo experiments, suspensions of MV4-11 and MOLM-13 cells in PBS at a concentration of 1 × 10^8 cells/mL were mixed with an equivalent volume of Matrigel® Basement Membrane Matrix, resulting in a final cell concentration of 5 × 10^7 cells/mL. The cells were subcutaneously injected into the flanks of mice at a concentration of 5 × 10^6 cells/0.1 mL/mouse. After tumor establishment, mice were divided into groups with similar mean tumor volume across groups.
Dosing volumes were 10 mL/kg for oral and intraperitoneal (IP) administration, and 5 or 10 mL/kg for intravenous (IV) administration. Treatment was administered once daily on designated days. The first day of treatment was designated as Day 0 and observation continued until Day 20 or 21 for mice xenografted with MV4-11 cells and Day 16 for mice xenografted with MOLM-13 cells. In mice xenografted with MV4-11 cells for experiments involving triple combination treatment, the control group received oral administration of vehicle (0.5% methylcellulose, Days 0–20), IP administration of vehicle (saline, Days 0–4), and IV administration of vehicle (saline, Days 0–2).
The AraC/DNR group received oral vehicle (0.5% methylcellulose, Days 0–20), IP AraC (50 mg/kg/day, Days 0–4), and IV DNR (2 mg/kg/day, Days 0–2). The AraC/IDR group received vehicle (Days 0–20), IP AraC (50 mg/kg/day, Days 0–4), and IV IDR (0.5 mg/kg/day, Days 0–2). […] For experiments involving Aza, the control group received oral vehicle (0.5% methylcellulose, Days 0–20) and IV vehicle (saline, Days 0–4). The Aza group received oral vehicle (0.5% methylcellulose, Days 0–20) and IV Aza (3 mg/kg/day, Days 0–4). […] For mice that received chemotherapy only, administration schedules for each agent were the same as those described in the triple combination groups.
Mice with established tumors were selected and divided into groups on Day −1 or Day 0, so that the mean tumor volumes were similar across groups. Body weights and tumor volumes assessed on Day −1 were designated as Day 0 values. Body weight and tumor diameter were measured for each experimental group; antitumor activity was expressed as the percent inhibition of tumor growth and the percent of tumor regression (further details are outlined in the Supplementary Materials). […] Complete regression was defined as no palpable or observable tumor. […]
Tumor evaluation 100 × (1 – [mean tumor volume of each group on the last day of observation] / [mean tumor volume of each
Body weight and tumor diameter were measured group on Day 0]) in xenografted nude mice xenografted with MV4-11 cells on the indicated days for each experimental group: 1. Treatments for pharmacokinetic assays […]
and 21. Body weight and tumor assessments obtained on with MV4-11 cells received one of the following Day −1 were designated as Day 0 (baseline) measurements. combination treatments: 1.
Tumor diameter was measured using a caliper and tumor 0.5% methylcellulose); 2. Oral methylcellulose (0.5%) in volume was determined by calculating the volume of an combination with IV IDR (0.5 mg/kg) and IP AraC (50 ellipsoid (ie, Length × Width2 × 0.5). The percent inhibition mg/kg); 3. […]
of tumor growth was calculated using the formula: kg) and IP AraC (50 mg/kg). For combination PK assays […]
on the last day of observation) – (tumor volume of each with MV4-11 received one of the following: […]
of each mouse on the last day of observation) – (tumor methylcellulose (0.5%) plus IV Aza (3 mg/kg); 3. Oral […]
The percent tumor regression was calculated using […]

[4] = test system: MCL-1, BCL2L10, survivin and cPARP in MOLM-13 cells; assay: Western blot analysis of anti-apoptotic protein expression, MOLM-13; format: cell-based, human; conditions: MOLM-13, 24-hour treatment; gilteritinib 30 nM, AraC 100 nM, IDR 3 nM, Aza 1000 nM
Experimental: as §1

[5] = plasma, iv, 3 mg/kg, azacitidine in plasma, gilteritinib 3, azacitidine 3 mg/kg
[6] = plasma, iv, azacitidine in plasma, doses gilteritinib 3, azacitidine 0 mg/kg
[7] = tumor, iv, 3 mg/kg, azacitidine in tumor, gilteritinib 3, azacitidine 3 mg/kg
[8] = Aza experiment: oral gilteritinib 3 mg/kg/day Days 0-20, IV Aza 3 mg/kg/day Days 0-4
[9] = plasma, po, 3 mg/kg, gilteritinib in plasma, gilteritinib 3 mg/kg, AraC 0, IDR 0
[10] = plasma, po, 3 mg/kg, gilteritinib in plasma, gilteritinib 3, AraC 50, IDR 0.5 mg/kg
[11] = plasma, po, 3 mg/kg, gilteritinib in plasma, gilteritinib 3, azacitidine 0 mg/kg
[12] = plasma, po, 3 mg/kg, gilteritinib in plasma, gilteritinib 3, azacitidine 3 mg/kg
[13] = tumor, po, 3 mg/kg, gilteritinib in tumor, gilteritinib 3 mg/kg, AraC 0, IDR 0
[14] = tumor, po, 3 mg/kg, gilteritinib in tumor, gilteritinib 3, AraC 50, IDR 0.5 mg/kg
[15] = tumor, po, 3 mg/kg, gilteritinib in tumor, gilteritinib 3, azacitidine 0 mg/kg
[16] = tumor, po, 3 mg/kg, gilteritinib in tumor, gilteritinib 3, azacitidine 3 mg/kg

AUC24 ratio ([2]; azacitidine in plasma): 0.87
AUC24 ratio ([2]; azacitidine in tumor): 1.17
AUC24 ([2]; azacitidine in tumor, doses gilteritinib 3, azacitidine 0 mg/kg): 323 ng·h/g
AUC24 ([2]; azacitidine in tumor, gilteritinib 3, azacitidine 3 mg/kg): 378 ng·h/g
Cmax [2, 5]: 3440 ng/mL
Tmax [2, 5]: 0.08 h
AUC [2, 5]: 1610 ng·h/mL
Cmax [2, 6]: 3390 ng/mL
Tmax [2, 6]: 0.08 h
AUC [2, 6]: 1850 ng·h/mL
Cmax [2, 7]: 96.8 ng/g
Tmax [2, 7]: 0.5 h
Cmax ([2]; tumor, iv, azacitidine in tumor): 61.3 ng/g
Tmax ([2]; tumor, iv, azacitidine in tumor, doses gilteritinib 3, azacitidine 0 mg/kg): 0.08 h
SMILES: Nc1ncn([C@@H]2O[C@H](CO)[C@@H](O)[C@H]2O)c(=O)n1 [Aza, Azacitidine]
expression of MCL-1, BCL2L10, and survivin [1]: no change
body weight on Day 21 between control and treatment groups [3]: No significant differences
Regression of Tumor ([3]; Aza experiment): 0%
Inhibition of Tumor Growth [3, 8]: 5%
expression of MCL-1, BCL2L10, and survivin [4]: little effect

difference in PK profile alone versus in combination ([2]; alone or in combination with AraC/IDR or Aza): no discernable difference
AUC24 ([2]; gilteritinib in tumor, gilteritinib 3 mg/kg, AraC 0, IDR 0): 6430.2 ng·h/g
AUC24 ([2]; gilteritinib in tumor, gilteritinib 3, AraC 50, IDR 0.5 mg/kg): 6639.0 ng·h/g
AUC24 ([2]; gilteritinib in tumor, gilteritinib 3, azacitidine 0 mg/kg): 3821 ng·h/g
AUC24 ([2]; gilteritinib in tumor, gilteritinib 3, azacitidine 3 mg/kg): 3964 ng·h/g
Cmax [2, 9]: 21.3 ng/mL
Tmax [2, 9]: 2 h
AUC [2, 9]: 156 ng·h/mL
Cmax [2, 10]: 22.3 ng/mL
Tmax [2, 10]: 2 h
AUC [2, 10]: 199 ng·h/mL
Cmax [2, 11]: 11 ng/mL
Tmax [2, 11]: 2 h
AUC [2, 11]: 65.8 ng·h/mL
Cmax [2, 12]: 10.1 ng/mL
Tmax [2, 12]: 2 h
AUC [2, 12]: 69.1 ng·h/mL
Cmax [2, 13]: 677 ng/g
Tmax [2, 13]: 2 h
Cmax [2, 14]: 437 ng/g
Tmax [2, 14]: 4 h
Cmax [2, 15]: 387 ng/g
Tmax [2, 15]: 4 h
Cmax [2, 16]: 349 ng/g
Tmax [2, 16]: 4 h
time after administration at which plasma concentrations peaked ([2]; plasma, alone or in combination with AraC/IDR or Aza): 2 h
concentration in tumor fraction versus plasma fraction ([2]; xenografted mice): higher in the tumor fraction
SMILES: CCc1nc(C(N)=O)c(Nc2ccc(N3CCC(N4CCN(C)CC4)CC3)c(OC)c2)nc1NC1CCOCC1 [Gilteritinib]
expression of MCL-1, BCL2L10, and survivin [1]: inhibited the expression
body weight on Day 21 between control and treatment groups [3]: No significant differences
Regression of Tumor ([3]; AraC/DNR experiment): 0%
Inhibition of Tumor Growth ([3]; AraC/DNR experiment: oral gilteritinib 3 mg/kg/day Days 0-20, IP AraC 50 mg/kg/day Days 0-4, IV DNR 2 mg/kg/day Days 0-2): 78%
Regression of Tumor ([3]; AraC/IDR experiment): 0%
Inhibition of Tumor Growth ([3]; AraC/IDR experiment: oral gilteritinib 3 mg/kg/day Days 0-20, IP AraC 50 mg/kg/day Days 0-4, IV IDR 0.5 mg/kg/day Days 0-2): 85%
Regression of Tumor ([3]; Aza experiment): 0%
Inhibition of Tumor Growth [3, 8]: 71%
mean (±SEM) tumor weight on Day 21 ([3]; AraC/DNR experiment, control 1.234±0.150 g): 0.441 ± 0.076 g
mean tumor weight on Day 21 ([3]; AraC/IDR experiment, control 1.64±0.12 g): 0.53 ± 0.09 g
expression of MCL-1, BCL2L10, and survivin [4]: strongly inhibited
